Source: patent US9128046B2, “Slide holder assembly for comet assay” (Cellomics, Inc., priority 2011, dated 2015)

How the values were obtained:
[1] = tested on: CHO-K1 cells; assay: comet assay of DNA repair over varied durations of time; type: cell-based; conditions: treated CHO-K1 cells layered onto wells for varied durations of time; FIG. 12
Description: In another sample comet assay, CHO-K1 cells were treated with 9-aminoacridine and the treated cells were layered onto select wells on the glass slide for varied durations of time. The cells were allowed to soak in a lysis solution and then an electrophoresis buffer while in the slide holder assembly. The cells were then electrophoresed while in the slide holder assembly and then imaged using the ToxInsight IVT Platform.

[2] = tested on: CHO-K1 cells; assay: comet assay on CHO-K1 cells in slide holder assembly; type: cell-based; conditions: CHO-K1 cells treated with 100 μM for one hour; imaged with ToxInsight IVT platform
Description: Exemplary comet assays were performed using the above devices and methods. For example, in one comet assay, comets were successfully generated and analyzed using CHO-K1 cells on a 96-well glass slide. To ensure that comets would be produced, half of the CHO-K1 cells were treated with 100 μM 9-aminoacridine for one hour. A 96-well glass slide was secured within a slide holder assembly and half of the slide was layered with the treated CHO-K1 cells while the other half was layered with untreated CHO-K1 cells. The cells were allowed to soak in a lysis solution and then an electrophoresis buffer while in the slide holder assembly. The cells were then electrophoresed while in the slide holder assembly and then imaged using the ToxInsight IVT platform.
In FIG. 11, the untreated CHO-K1 cells 342 are shown in columns 1-6 (i.e., the left half of the image) and the treated CHO-K1 cells 344 are shown in columns 7-12 (i.e., on the right half). […] In the sample comet assay, the ToxInsight® IVT Platform was used as the cell imaging system to scan 25 fields/well. Using the Comet.V4 BioApplication software developed by Cellomics Inc., 14,075 comets were automatically selected by the cell imaging system within a time period of 20 minutes, 29 seconds. […] This translates to over one million comets that could be analyzed per 24-hour day.

With `Nc1c2ccccc2nc2ccccc12` [9-aminoacridine] the “DNA repair quantified in comets” value [1] was “time-dependent response of DNA repair” and the “comet formation (DNA damage)” value [2] was “comets were formed and imaged on the treated cells”.
